Like-named read-outs stand apart in the source and are kept apart here.
Assays:
Format in all cases: in vivo
[1] = system: barnyardgrass (Echinochloa crus-galli); test: Test A pre/postemergence; details: for pest or weed control at 500 g/ha: 500 g ai/ha
Method in brief: (§1)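 After planting in loam and sand, species received test chemical as preemergence soil spray; postemergence spray went on 2–10 cm plants at 1–2 leaves at the same time. Evaluation: visual injury, ~10 d, 0 no effect to 100 complete control.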

[2] = system: crabgrass (Digitaria sanguinalis); test: Test A pre/postemergence; details: for pest or weed control at 125 g/ha: 125 g ai/ha
Method in brief: as §1

[3] = system: giant foxtail (Setaria faberi); test: Test A pre/postemergence; details: for pest or weed control at 500 g/ha: 500 g ai/ha
Method in brief: as §1

[4] = system: morningglory (Ipomoea spp.); test: Test A pre/postemergence; details: Ipomoea, 240 h, read-out: Plant response rating, Morningglory; for pest or weed control at 125 g/ha: 125 g ai/ha; for pest or weed control at 500 g/ha: 500 g ai/ha
Method in brief: as §1

[5] = system: redroot pigweed (Amaranthus retroflexus); test: Test A pre/postemergence; details: Amaranthus retroflexus, 240 h, read-out: Plant response rating, Pigweed; for pest or weed control at 125 g/ha: 125 g ai/ha; for pest or weed control at 500 g/ha: 500 g ai/ha
Method in brief: as §1

[6] = system: velvetleaf (Abutilon theophrasti); test: Test A pre/postemergence; details: Abutilon theophrasti, 240 h, read-out: Plant response rating, Velvetleaf; for pest or weed control at 125 g/ha: 125 g ai/ha; for pest or weed control at 500 g/ha: 500 g ai/ha
Method in brief: as §1

[7] = system: cocklebur (Xanthium strumarium); test: Test C pre/postemergence; details: Preemergence
Method in brief: (§2)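 Test compounds, formulated in a non-phytotoxic solvent mix with surfactant, were applied to freshly planted seeds and, at the same time, to emerged plants at 1- to 4-leaf stage (2 to 18 cm). After 12 to 14 days in the greenhouse, response was scored visually versus controls, 0 = no effect, 100 = complete control.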

[8] = system: crabgrass (Digitaria sanguinalis); test: Test C pre/postemergence; details: Preemergence
Method in brief: as §2

[9] = system: johnsongrass (Sorghum halepense); test: Test C pre/postemergence; details: Preemergence
Method in brief: as §2

kochia (Kochia scoparia) = test: Test C pre/postemergence; details: Preemergence; for Plant response rating, Kochia: scale 0 to 100, 0 no effect, 100 complete control
Method in brief: as §2

[10] = system: pigweed (Amaranthus retroflexus); test: Test C pre/postemergence; details: Preemergence, scale 0 to 100, 0 no effect, 100 complete control
Method in brief: as §2

[11] = Preemergence, 125 g ai/ha, 0 to 100 scale where 0 is no effect and 100 is complete control, approximately ten days
[12] = post-emergence, Postemergence, 0 to 100 scale (0 no effect, 100 complete control)
[13] = pre-emergence, Preemergence, 0 to 100 scale where 0 is no effect and 100 is complete control, approximately ten days
[14] = 16 g ai/ha, scale 0 to 100, 0 no effect, 100 complete control

In the case of `Nc1nc(C2CC2)nc(C(=O)[O-])c1Cl.[Na+]` [Compound 77, 6-amino-5-chloro-2-cyclopropyl-4-pyrimidinecarboxylic acid monosodium salt], the pest or weed control at 125 g/ha ([1]; Echinochloa crus-galli, post-emergence, 240 h, Postemergence, 125 g ai/ha, 0 to 100 scale (0 no effect, 100 complete control), read-out: Plant response rating, Barnyardgrass) was 90%, the pest or weed control at 500 g/ha ([1]; Echinochloa crus-galli, post-emergence, 240 h, Postemergence, 0 to 100 scale (0 no effect, 100 complete control), read-out: Plant response rating, Barnyardgrass) was 90% and the pest or weed control at 500 g/ha ([1]; Echinochloa crus-galli, pre-emergence, 240 h, Preemergence, 0 to 100 scale where 0 is no effect and 100 is complete control, approximately ten days, read-out: Plant response rating, Barnyardgrass) was 100%. The “Plant response rating, Barnyardgrass” value [1, 11] was 90, the pest or weed control at 125 g/ha ([2]; Digitaria sanguinalis, post-emergence, 240 h, Postemergence, 0 to 100 scale (0 no effect, 100 complete control), read-out: Plant response rating, Crabgrass) was 70% and the pest or weed control at 125 g/ha ([2]; Digitaria sanguinalis, pre-emergence, 240 h, Preemergence, 0 to 100 scale where 0 is no effect and 100 is complete control, approximately ten days, read-out: Plant response rating, Crabgrass) was 70%. The pest or weed control at 500 g/ha ([2]; Digitaria sanguinalis, pre-emergence, 240 h, Preemergence, 500 g ai/ha, 0 to 100 scale where 0 is no effect and 100 is complete control, approximately ten days, read-out: Plant response rating, Crabgrass) was 80%, the “Plant response rating, Crabgrass” value ([2]; Postemergence, 500 g ai/ha, 0 to 100 scale (0 no effect, 100 complete control)) was 90 and the “Plant response rating, Foxtail, Giant” value [3, 11] was 75. The pest or weed control at 125 g/ha ([3]; Setaria faberi, post-emergence, 240 h, Postemergence, 125 g ai/ha, 0 to 100 scale (0 no effect, 100 complete control), read-out: Plant response rating, Foxtail, Giant) was 85%, the pest or weed control at 500 g/ha ([3]; Setaria faberi, post-emergence, 240 h, Postemergence, 0 to 100 scale (0 no effect, 100 complete control), read-out: Plant response rating, Foxtail, Giant) was 90% and the pest or weed control at 500 g/ha ([3]; Setaria faberi, pre-emergence, 240 h, Preemergence, 0 to 100 scale where 0 is no effect and 100 is complete control, approximately ten days, read-out: Plant response rating, Foxtail, Giant) was 95%. The pest or weed control at 125 g/ha [4, 12] was 95%, the pest or weed control at 500 g/ha [4, 12] was 100% and the pest or weed control at 125 g/ha [4, 13] was 100%. It also gave a pest or weed control at 500 g/ha [4, 13] of 100%, a pest or weed control at 125 g/ha [5, 12] of 95% and a pest or weed control at 500 g/ha [5, 12] of 95%. It also gave a pest or weed control at 125 g/ha [5, 13] of 85%, a pest or weed control at 500 g/ha [5, 13] of 95% and a pest or weed control at 125 g/ha [6, 12] of 95%. For the same compound, the pest or weed control at 500 g/ha [6, 12] was 100%, the pest or weed control at 125 g/ha [6, 13] was 100% and the pest or weed control at 500 g/ha [6, 13] was 100%. For the same compound, the “Plant response rating, Cocklebur” value [7, 14] was 55, the “Plant response rating, Cocklebur” value ([7]; 31 g ai/ha, scale 0 to 100, 0 no effect, 100 complete control) was 70 and the pest or weed control at 62 g/ha ([7]; Xanthium strumarium, pre-emergence, 62 g ai/ha, scale 0 to 100, 0 no effect, 100 complete control, read-out: Plant response rating, Cocklebur) was 80%. For the same compound, the pest or weed control at 125 g/ha ([7]; Xanthium strumarium, pre-emergence, 125 g ai/ha, scale 0 to 100, read-out: Plant response rating, Cocklebur) was 95%, the pest or weed control at 31 g/ha ([8]; Digitaria sanguinalis, pre-emergence, 31 g ai/ha, scale 0 to 100, 0 no effect, 100 complete control, read-out: Plant response rating, Crabgrass) was 0% and the pest or weed control at 62 g/ha ([8]; Digitaria sanguinalis, pre-emergence, 62 g ai/ha, scale 0 to 100, 0 no effect, 100 complete control, read-out: Plant response rating, Crabgrass) was 0%. The “Plant response rating, Crabgrass” value [8, 14] was 0, the “Plant response rating, Crabgrass” value ([8]; 125 g ai/ha, scale 0 to 100) was 0 and the “Plant response rating, Johnsongrass” value [9, 14] was 0. The “Plant response rating, Johnsongrass” value ([9]; 62 g ai/ha, scale 0 to 100, 0 no effect, 100 complete control) was 0, the “Plant response rating, Johnsongrass” value ([9]; 125 g ai/ha, scale 0 to 100) was 0 and the pest or weed control at 31 g/ha ([9]; Sorghum halepense, pre-emergence, 31 g ai/ha, scale 0 to 100, 0 no effect, 100 complete control, read-out: Plant response rating, Johnsongrass) was 0%. The pest or weed control at 125 g/ha (kochia (Kochia scoparia); Bassia scoparia, pre-emergence, 125 g ai/ha, scale 0 to 100, read-out: Plant response rating, Kochia) was 80%, the “Plant response rating, Kochia” value (kochia (Kochia scoparia); 16 g ai/ha) was 20 and the “Plant response rating, Kochia” value (kochia (Kochia scoparia); 62 g ai/ha) was 50. For the same compound, the pest or weed control at 31 g/ha ([10]; Amaranthus retroflexus, pre-emergence, 31 g ai/ha, read-out: Plant response rating, Pigweed) was 60%, the pest or weed control at 62 g/ha ([10]; Amaranthus retroflexus, pre-emergence, 62 g ai/ha, read-out: Plant response rating, Pigweed) was 65% and the “Plant response rating, Pigweed” value ([10]; 16 g ai/ha) was 60.

Reference: patent US8802597B2, “Herbicidal pyrimidines” (E I du Pont de Nemours and Company, priority 2003, dated 2014)
